Data: patent US5180720A, “2- and 3-alkoxy or hydroxy-8-substituted-dibenz[b,f]-[1,4]oxazepine-10(11H)-carboxylic acid, substituted hydrazides and methods for treating pain” (G. D. Searle & Co., priority 1991, dated 1993)
Entries after “also recorded” stand apart in the source; their conditions may differ. Blank lines part the entries; values can stand above or below the compound they belong to.

Key:
[1] = tested on: stimulant actions of prostaglandins on isolated smooth muscle preparations; conditions: cited from earlier work
[2] = tested on: micturition reflex in rats; conditions: urethane-anesthetized rats; cited from earlier work
mice = assay: PBQ Writhing Assay (analgesic activity); format: in vivo, mouse (Charles River male albino mice); conditions: for rank order of potency in the Writhing Assay: PBQ writhing; for PBQ writhing assay, I.G. (activity): 30 mg/kg i.g.; for PBQ writhing assay, S.C. (activity): 30 mg/kg s.c.
From the text: The Writhing Assay is one of the most widely-used experimental procedures for measuring the analgesic activity of different narcotic and nonnarcotic analgesic agents, and involves the continuous, chemically-induced pain of visceral origin to an animal, such as a mouse or rat. [Gyires et al., Arch. int. Pharmacodyn, 267, 131-140 (1984); C. Vander Wende et al., Fed. Proc., 15, 494 (1956); Koster et al., Fed. Proc., 18, 412 (1959); and Witken et al., J. Pharmacol. exp. Ther., 133, 400-408 (1961).] Chemicals which may be used to induce this pain include phenylbenzoquinone (PBQ) and acetic acid. As a result of the chemical irritation to the animal, a characteristic stretching and writhing of the animal (dorsiflexion of the animal's back, extension of its hindlimbs and the strong contraction of its abdominal musculature) will generally occur. […] Drugs which reduce the number of writhes of the animal appear to restore the normal nociceptive threshold of the animal.
Charles River male albino mice, weighing 20 to 30 grams were used in this assay.
Thirty minutes after subcutaneous or intragastric administration to ten mice of 30 mg per kilogram of body weight of a compound of the present invention ("test compound"), […] per 10 g of body weight of a 0.025% w/v solution of PBQ was injected intraperitoneally into each mouse. Ten mice which were given saline in place of a test compound of the invention were used as a control group.
Five minutes later, each mouse was individually placed into a glass beaker for observation, and the number of writhes occurring during the following ten-minute period was counted.
A test compound was considered to have produced analgesia in a mouse if, in accordance with the conditions set forth above, and under the test criteria employed for this assay, after the administration of 30 mg per kilogram of body weight of a compound of the present invention to the mouse, the number of writhes elicited by a mouse injected with PBQ was equal to, or less than, one-half the median number of writhes recorded for the saline-treated control group of mice that day, as described by Taber in "Predictive Value of Analgesic Assays in Mice and Rats," Advances in Biochemical Psychopharmacology, 8, 191 (1974).
The standard initial screening dose of a test compound employed in this assay was 30 mg per kilogram of body weight for both routes of administration. If this initial screening dose of the test compound produced analgesia in seven out of ten mice, then the effect of additional doses of the test compound on the writhing response was evaluated, and then the ED50 dose was generally calculated. (The slopes of the dose-response curves for all test compounds analyzed were compared as described by Tallarida and Murray, Manual of Pharmacologic Calculations, Page 11 (Springer Verlag, N.Y., 1981)).

[3] = tested on: prostaglandins of the E series; conditions: cited from earlier work
[4] = target: T1, prostaglandin E2-induced contractions of segments of guinea pig ileum (Cavia porcellus, UniProt A0A286XHJ6); assay: Prostaglandin (PGE) Antagonism Assay, guinea pig ileum; format: cell-based; set-up: key to PGE antagonism in guinea pig ileum (activity): Active: A concentration of the test compound was determined to be "active" if it produced a dose ratio significantly greater than that obtained in a series of blank treatments
T1 construct: Segments of ileum about 2 cm long were then cut and mounted in a 10-mL tissue bath; from tissue; host or cells: ileum segments of male albino guinea pigs
T1 sequence (A0A286XHJ6 1-405): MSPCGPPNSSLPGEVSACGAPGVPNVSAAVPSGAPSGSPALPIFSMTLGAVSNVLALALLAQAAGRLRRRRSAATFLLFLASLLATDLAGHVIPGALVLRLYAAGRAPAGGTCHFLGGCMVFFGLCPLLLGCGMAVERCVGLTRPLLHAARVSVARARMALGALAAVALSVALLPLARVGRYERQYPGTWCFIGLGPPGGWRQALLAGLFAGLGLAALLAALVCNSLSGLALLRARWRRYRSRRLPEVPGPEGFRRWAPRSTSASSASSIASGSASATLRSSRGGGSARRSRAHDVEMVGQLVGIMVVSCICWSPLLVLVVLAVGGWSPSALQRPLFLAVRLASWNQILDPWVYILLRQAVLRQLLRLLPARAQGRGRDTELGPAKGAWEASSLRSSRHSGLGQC
Protocol: In order to determine the effectiveness of compounds of the invention ("test compounds") as prostaglandin E2 antagonists, a prostaglandin antagonism assay was conducted, as described below, to determine the ability of these compounds to inhibit prostaglandin E2 -induced contractions of segments of guinea pig ileum.
Male albino guinea pigs weighing 200 to 500 grams were sacrificed by cervical dislocation.
The ileums were then quickly removed from the guinea pigs and placed in a modified Tyrode solution, a solution which is known to those of skill in the art, containing one-half of the usual amount of magnesium ions.
Segments of ileum about 2 cm long were then cut and mounted in a 10-mL tissue bath containing the modified Tyrode solution. The solution was maintained at 37° C. and aerated with a gaseous mixture of 95% oxygen and 5% carbon dioxide.
Submaximal contractions of the ileum segments were then generated by injecting prostaglandin E2 into the bath, and detected isotonically. Data for a control prostaglandin E2 dose response curve plotting concentration of prostaglandin E2 versus number of contractions generated was then obtained by experimentally adjusting the dose of the prostaglandin E2 being injected into the tissue bath, in a manner known by those of skill in the art.
Solutions or suspensions containing an initial amount of a test compound in modified Tyrode solution ("test solutions/ suspensions") were then separately substituted for the tissue bath. […]
If the initial concentration of a test compound was determined to be "active," then varying concentrations of the test compound were then assayed.
The pA2 value (a statistical constant which is a common measure of expressing the potency of a particular drug as a competitive antagonist) was then calculated for the test compound by schild plot calculations, as described by H.O. Schild, "pA, A New Scale for the Measurement of Drug Antagonism," Br. J. Pharmacol, 2, 189 (1947), according to the following mathematical formula: […]
to quantitate the effectiveness of the test compound as a prostaglandin E2 antagonist.

SMILES: O=C(Cc1ccccc1)NNC(=O)N1Cc2ccccc2Oc2ccc(Cl)cc21 [SC-18637]
inhibition of stimulant actions of prostaglandins [1]: inhibit the stimulant actions of prostaglandins on isolated smooth muscle preparations

SMILES: CC(=O)NNC(=O)N1Cc2ccccc2Oc2ccc(Cl)cc21 [SC-19220]
inhibition of stimulant actions of prostaglandins [1]: inhibit the stimulant actions of prostaglandins on isolated smooth muscle preparations
bladder capacity [2]: increased the bladder capacity
voiding efficiency of micturition [2]: reduced the voiding efficiency of micturition

SMILES: CCS(=O)(=O)CCC(=O)NNC(=O)N1Cc2cc(OC)ccc2Oc2ccc(Cl)cc21 [Example 3, 8-chloro-2-methoxydibenz[b,f][1,4]oxazepine-10(11H)-carboxylic acid, 2-[3-(ethylsulfonyl)-1-oxopropyl]hydrazide]
rank order of potency in the Writhing Assay (mice): Example 4>Example 8>Example 7>Example 3

SMILES: CCS(=O)(=O)CCC(=O)NNC(=O)N1Cc2ccc(OC)cc2Oc2ccc(Cl)cc21 [Example 7, 8-chloro-3-methoxydibenz[b,f][1,4]oxazepine-10(11H)-carboxylic acid, 2-[3-(ethylsulfonyl)-1-oxopropyl]hydrazide]
PBQ writhing assay, I.G. (activity) (mice): Active
rank order of potency in the Writhing Assay (mice): Example 4>Example 8>Example 7>Example 3

SMILES: CCS(=O)(=O)CCC(=O)NNC(=O)N1Cc2ccc(O)cc2Oc2ccc(Cl)cc21 [Example 8]
PBQ writhing assay, I.G. (activity) (mice): Active
PBQ writhing assay, S.C. (activity) (mice): Active
rank order of potency in the Writhing Assay (mice): Example 4>Example 8>Example 7>Example 3

SMILES: O=C(CCCCCl)NNC(=O)N1Cc2ccccc2Oc2ccc(Cl)cc21 [8-chlorodibenz[b,f][1,4]-oxazepine-10(11H)-carboxylic acid, 2-(5-chloro-1-oxopentyl)hydrazide]
antagonism of prostaglandins of the E series [3]: competitive antagonists of prostaglandins of the E series

PGE antagonism in guinea pig ileum (activity) ([4]; guinea pig ileum segments, 37° C.): Active
Kb ([4]; guinea pig ileum segments, 37° C., Schild plot, read-out: PGE antagonism in guinea pig ileum (pA2) (converted)): 3.98 µM
SMILES: CCS(=O)(=O)CCC(=O)NNC(=O)N1Cc2cc(O)ccc2Oc2ccc(Cl)cc21 [Example 4, 8-chloro-2-hydroxydibenz[b,f][1,4]oxazepine-10(11H)-carboxylic acid, 2-[3-(ethylsulfonyl)-1-oxopropyl]hydrazide]
PBQ writhing assay, I.G. (activity) (mice): Active
PBQ writhing assay, S.C. (activity) (mice): Active
ED50 (mice; Mus musculus, po, 0.5 h, intragastric, read-out: PBQ writhing assay ED50, I.G.): 12.6 mg/kg
rank order of potency in the Writhing Assay (mice): Example 4>Example 8>Example 7>Example 3; also recorded: the most potent compound of the invention tested in this assay
activity as prostaglandin E2 antagonist, in words ([4]; guinea pig ileum): exhibits activity as a prostaglandin E2 antagonist

SMILES: CC(=O)NNC(=O)N1Cc2ccccc2Oc2ccc(Cl)cc21 [8-chlorodibenz[b,f][1,4]-oxazepine-10(11H-carboxylic acid, 2-acetylhydrazide]
antagonism of prostaglandins of the E series [3]: competitive antagonists of prostaglandins of the E series
